One series has as its target hCA II (Homo sapiens, UniProt P00918). The series can be described thus: Stopped-flow CA-catalyzed CO2 hydration inhibition assay.
Series [1] deals with T1, hCA XII (Homo sapiens, UniProt O43570). The description is as above.
Method: (§1) A stopped-flow instrument was used, according to the previously reported methodology, to measure the CA (carbonic anhydrase)-catalyzed CO2 hydration/inhibition [46]. For 10 to 100 s, the CA-catalyzed CO2 hydration reaction’s initial rates were observed. […] Stock solutions of inhibitors (10 mM) and dilutions up to 0.01 nM were prepared in distilled-deionized water. Before the experiment started, the inhibitor and enzyme solutions were preincubated for 15 min at room temperature to allow for the formation of the enzyme/inhibitor (E/I) complex.
Series [2] deals with T2, hCA IX (Homo sapiens, UniProt Q16790). The series is described as above.
Method: as §1
Another series has as its target hCA I (Homo sapiens, UniProt P00915). The series can be described thus: Stopped-flow CA-catalyzed CO2 hydration inhibition assay.
The target of series [3] is T1, hCA XII. On the set-up: method as in PMID 27775452. Particulars: previously synthesized compound; cited from earlier work.
Series [4] deals with T2, hCA IX. On the set-up: method as in PMID 27775452. Particulars: previously synthesized compound; cited from earlier work.

Structures are written as SMILES.

Data on 10 compounds can be found in paper PMC11433937, “Privileged Scaffold Hybridization in the Design of Carbonic Anhydrase Inhibitors” (Molecules, 2024).

Chain of hCA I (P00915 whole entry): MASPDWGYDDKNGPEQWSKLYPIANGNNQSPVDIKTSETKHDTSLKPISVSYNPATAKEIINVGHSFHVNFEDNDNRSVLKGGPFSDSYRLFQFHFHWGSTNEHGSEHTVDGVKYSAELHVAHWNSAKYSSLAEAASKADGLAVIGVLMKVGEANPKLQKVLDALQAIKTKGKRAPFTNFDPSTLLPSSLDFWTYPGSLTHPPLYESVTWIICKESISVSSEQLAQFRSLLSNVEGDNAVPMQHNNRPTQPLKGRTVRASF
T1 sequence (O43570 30-289 limits assumed): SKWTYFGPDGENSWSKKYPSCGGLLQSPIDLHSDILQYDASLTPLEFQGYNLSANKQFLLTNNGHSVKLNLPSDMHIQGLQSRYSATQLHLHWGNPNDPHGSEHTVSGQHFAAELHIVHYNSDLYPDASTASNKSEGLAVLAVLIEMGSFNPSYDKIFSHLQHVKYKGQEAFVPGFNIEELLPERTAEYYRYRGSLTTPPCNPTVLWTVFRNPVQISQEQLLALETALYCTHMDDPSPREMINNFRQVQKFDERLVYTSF
Method for hCA II: as §1

With `NS(=O)(=O)c1ccc(NN2C(=O)/C(=C3/C(=O)Nc4ccc(Cl)cc43)SC2=Nc2ccccc2)cc1` [5a, 4-((5-((Z)-5-chloro-2-oxoindolin-3-ylidene)-4-oxo-2-(phenylimino)thiazolidin-3-yl)amino)benzenesulfonamide], the melting point fell in the range of 314.2 to 316.1 °C. Moreover, the Ki at hCA II turned out to be 246 nM. Affinity on hCA XII [1] was put at a Ki of 61.1 nM. On hCA IX [2], this compound had a Ki of 99.4 nM. Also, affinity at hCA I was put at a Ki of 4590 nM.
The like results for `NS(=O)(=O)c1ccc(NN2C(=O)/C(=C3/C(=O)Nc4ccc([N+](=O)[O-])cc43)SC2=Nc2ccccc2)cc1` [5b, 4-((5-((Z)-5-nitro-2-oxoindolin-3-ylidene)-4-oxo-2-(phenylimino)thiazolidin-3-yl)amino)benzenesulfonamide] were, in that order, 338.5 to 340 °C, 159 nM, 7.5 nM, 34.6 nM and 6030 nM.
For `NS(=O)(=O)c1ccc(NN2C(=O)/C(=C3/C(=O)Nc4ccc(F)cc43)SC2=Nc2ccccc2)cc1` [5c, 4-((5-((Z)-5-fluoro-2-oxoindolin-3-ylidene)-4-oxo-2-(phenylimino)thiazolidin-3-yl)amino)benzenesulfonamide], the melting point was in the range of 297.5 to 299.8 °C. Further, at hCA II, the Ki is 6.9 nM. This compound showed a Ki on hCA XII [1] of 21.8 nM. Further, the Ki on hCA IX [2] is 23.1 nM. The same compound returned a Ki on hCA I of 5880 nM.
On to `NS(=O)(=O)c1ccc(NN2C(=O)/C(=C3/C(=O)Nc4ccc(Br)cc43)SC2=Nc2ccccc2)cc1` [5d, 4-((5-((Z)-5-bromo-2-oxoindolin-3-ylidene)-4-oxo-2-(phenylimino)thiazolidin-3-yl)amino)benzenesulfonamide], for which the melting point lay in the range of 331.4 to 332.7 °C. At hCA II, this compound yielded a Ki of 104 nM. Moreover, the Ki on hCA XII [1] turned out to be 193 nM. The same compound returned a Ki at hCA IX [2] of 87.4 nM. Moreover, the Ki at hCA I was greater than 10000 nM.
`COc1ccc2c(c1)/C(=C1/SC(=Nc3ccccc3)N(Nc3ccc(S(N)(=O)=O)cc3)C1=O)C(=O)N2` [5e, 4-((5-((Z)-5-methoxy-2-oxoindolin-3-ylidene)-4-oxo-2-(phenylimino)thiazolidin-3-yl)amino)benzenesulfonamide] yielded a melting point of 328.8 to 330.1 °C. The Ki on hCA II amounted to 9.6 nM. The compound further had a Ki on hCA XII [1] of 53.7 nM. At hCA IX [2], affinity was put at a Ki of 5 nM. The affinity on hCA I, expressed as Ki, was 9060 nM.
With `Cc1ccc2c(c1)/C(=C1/SC(=Nc3ccccc3)N(Nc3ccc(S(N)(=O)=O)cc3)C1=O)C(=O)N2` [5f, 4-((5-((Z)-5-methyl-2-oxoindolin-3-ylidene)-4-oxo-2-(phenylimino)thiazolidin-3-yl)amino)benzenesulfonamide], the melting point fell in the range of 333.9 to 334.6 °C. In addition, at hCA II, the Ki was found to be 70.8 nM. This compound returned a Ki at hCA XII [1] of 0.6 nM. In addition, at hCA XII [1] (ratio of Ki hCA II to Ki hCA XII), the “selectivity index SI hCA II/hCA XII” value was determined as 118. Besides, the Ki at hCA IX [2] worked out at 14.9 nM. In addition, on hCA IX [2] (ratio of Ki hCA II to Ki hCA IX), the “selectivity index SI hCA II/hCA IX” value was determined as 4.75. In addition, on hCA I, the Ki is greater than 10000 nM.
For `NS(=O)(=O)c1ccc(NN2C(=O)/C(=C3/C(=O)Nc4ccccc43)SC2=Nc2ccccc2)cc1` [5g, 4-((4-oxo-5-((Z)-2-oxoindolin-3-ylidene)-2-(phenylimino)thiazolidin-3-yl)amino)benzenesulfonamide], the inhibitory constant (Ki) stood at 9.6 nM on hCA II, 16.8 nM at hCA XII [1], 2.5 nM at hCA IX [2] and 5280 nM on hCA I.
For `NS(=O)(=O)c1ccc(NN2C(=O)/C(=C3/C(=O)Nc4c(F)cccc43)SC2=Nc2ccccc2)cc1` [5h, 4-((5-((Z)-7-fluoro-2-oxoindolin-3-ylidene)-4-oxo-2-(phenylimino)thiazolidin-3-yl)amino)benzenesulfonamide], the melting point was in the range of 336.1 to 336.6 °C. Further, at hCA II, affinity was put at a Ki of 4.1 nM. This compound also returned a Ki on hCA XII [1] of 1.3 nM. For the same compound, at hCA IX [2], the Ki amounted to 12.7 nM. This compound came in with a Ki on hCA I of 6620 nM.
For `NS(=O)(=O)c1ccc(NN2C(=O)/C(=C3/C(=O)Nc4c(Br)cccc43)SC2=Nc2ccccc2)cc1` [5i, 4-((5-((Z)-7-bromo-2-oxoindolin-3-ylidene)-4-oxo-2-(phenylimino)thiazolidin-3-yl)amino)benzenesulfonamide] the same measures were 344.9 to 346 °C, 17.8 nM, 94 nM, 50.3 nM and 7690 nM.
Turning to `CN1C(=O)/C(=C2/C(=O)Nc3c(F)cccc32)S/C1=N\c1ccc(S(N)(=O)=O)cc1` [EMAC10020m], at hCA XII [3], the “inhibitory activity against hCA XII” value was “in the nanomolar range”. In addition, the “inhibitory activity against hCA IX” value on hCA IX [4] is recorded as “in the nanomolar range”.

The term Ki denotes a measure of affinity in units of concentration, obtained from inhibition or displacement. What is called melting point is the temperature of the solid-liquid transition.
